Values of other authors in patent US6468469B2, “Reuse determination for high level disinfectant” (Metrex Research Corporation, priority 2000, dated 2002).

Tested on: M. tuberculosis
Conditions: alone at a concentration of up to 7.5%

OO [hydrogen peroxide]
kill of M. tuberculosis: does not kill
